Measured values as given in article PMC12392461, “Beyond Estrogenicity: A Comparative Assessment of Bisphenol A and Its Alternatives in In Vitro Assays Questions Safety of Replacements” (Environmental Science & Technology, 2025).
Where two headings read alike, the source gives them in different places.

Assays:
[1] = tested on: HEK293H, HEK293T, H4IIe, MCF7 and SH-SY5Y cells; conditions: for cytotoxicity,median REPBPA,IC10: median IC10 relative to BPA; for IC10,Median (M): median cytotoxicity of all cell lines; for IC10, median: median cytotoxicity over all cell lines
Procedure: Cell culture conditions and bioassay protocols including response detection are provided in Text S2.1–2.4 and Table S3. − Cell viability was determined from cell confluency using an IncuCyte S3 Live-Cell Analysis System (Sartorius AG, Essen, Germany) before and after exposure, except for SH-SY5Y cells (live–dead staining with Nuclear Green LcS1 and propidium iodide, Abcam, UK). For metabolic activation experiments, cell viability was assessed using the ToxBLAzer DualScreen Kit (Thermo Fisher Scientific) to capture the remaining toxicity in ERα-UAS-bla GripTite after treatment with the aCYP catalyst (details in Text S2.4).
For ARE, the concentration that triggered an induction ratio of 1.5 (ECIR1.5) was used as the benchmark value, as detailed in Text S2.5. IC10 values also served as a threshold for data analysis in all assays; only concentrations below IC10 were considered when deriving EC10 or ECIR1.5.
TR indicates whether the cytotoxicity is triggered by specific toxicity mechanisms (TR ≥ 10) or not (0.1< TR< 10). 3 TR=IC10,baseline/IC10 We measured the cytotoxicity of BPA and its alternatives in HEK293H (PPARγ), HEK293T (ERα), H4IIe (AhR CALUX), MCF7 (ARE/MMP), and differentiated SH-SY5Y cells (Table S6). […]
medium, supplemented with 2% B-27 Supplement and 2 mM GlutaMAX Supplement. SH - SY5Y cells were differentiated with 10 µM all-trans retinoic acid prior to the assay.
S2.2: Cell Seeding and Incubation. For all bioassays, cell suspensions in the respective assay medium were dispensed into each well of 384-well plates using a MultiFlo Dispenser (Biotek, (now Agilent), Winooski, VT, U.S.). After seeding, the plates were incubated at 37° C and 5% CO₂ for […]. The final cell densities and plate types were as follows: Black poly-D-lysine […]
6500 cells/well, ERα: 5000 cells/well. White 384-well plates with a clear bottom (Product No.
NYC, U.S.) for AhR: 3250 cells/well. Black Collagen I coated plates were used (Product No.
S2.3: Chemical Dosing and Assay Analysis Procedures. The dosing procedure and high-throughput assay workflow have been described in detail before. 9 The dosing concentrations […]
Stock solutions were then either added directly to the respective cell culture medium or evaporated under nitrogen, followed by replenishment with fresh medium. The final solvent content in each well was kept below 1% for methanol, 0% for acetonitrile.
Dosing plates were prepared as 11 -step serial dilutions using a Hamilton Microlab Star robotic system (Hamilton, Bonaduz, Switzerland), and chemicals were dosed in duplicates by transferring 10 μL twice from the dosing plates to the cell plates . After quantifying cell confluency as described in S2. 4., the exposed cells were incubated at 37° C and 5% CO₂ for an additional 24 h. All chemicals were tested in all assays with at least three independent […]
S2.4: Cell Viability Measurement s and bioanalytical protocols . The confluency as a measure of cell viability was determined with an IncuCyte S3 Live -Cell Analysis System (Sartorius AG, Essen, Germany). With this method the confluency of cells in a microscopy image are normalized to control wells without cells and compared before and after 24 hours of exposure.
This method has been described previously 13. Cell viability of SH-SY5Y cells was measured […]
propidium iodide (PI, Abcam, Cambridge, U.K.).14 Nuclear Green LCS1 is a membrane-permeable dye that stains the nuclei of all cells, whereas PI only enters cells with compromised membrane integrity (non-viable cells). After staining, live cells show green nuclei without red fluorescence, while dead cells display both green and red nuclear fluorescence due to PI […]
intercalation. Cell viability was calculated as the proportion of green-only nuclei relative to the […]
For experiments with the preceding aCYP activation, ERα cell viability was additionally calculated from the readout of the ToxBLAzer reagent. The ToxBLAzer assay was conducted following the manufacturer's instructions (Thermo Fisher, Waltham, MA, U.S.).13 Fluorescence

[2] = 15 min
Procedure: The mixtures were adjusted to a final volume of 100 μL with acetonitrile (ACN). The reaction mix was incubated for 15 min at 30 °C and 1000 rpm on a Bioshake iQ orbital shaker from QInstruments (Jena, Germany). Additionally, a mixture without test compounds was prepared as a control. Subsequently, 10 μL of the reaction mixture was transferred into a conical dosing vial and evaporated under a nitrogen flow.
For chemical analysis, 10 μL of the reaction mixture was concentrated under vacuum (CentriVap, Labconco, Kansas City, MO, USA), diluted to 1 mg/L in ACN or ethyl acetate. The chemical analysis of the reaction mixtures was performed using liquid chromatography (LC) and gas chromatography (GC) coupled with various detection techniques, preferably Multiple Reaction Monitoring (MRM). Data acquisition and processing were carried out using the software MassHunter. Quantification was based on external calibrations.
The Cparent-Ratio quantifies the extent of oxidation of the parent compound after the abiotic CYP reaction. It was calculated as the ratio of the parent compound concentration after oxidation (C parent, after oxidation) to its concentration before oxidation (C parent, before oxidation) as shown in eq . […] 8 Cparent‐Ratio=Cparent,after oxidation/Cparent,before oxidation

[3] = tested on: ERα; conditions: ref Pelch et al 2019; cited from earlier work
[4] = tested on: Tox21 assays; conditions: cited from earlier work
[5] = tested on: Tox21 assays; experiment: Re-evaluated Tox21 data (Adamovsky et al.), REPBPA and SRbaseline; conditions: for SRbaseline: Specificity Ratio;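 as to all read-outs here: published Tox21 results reanalysed with a revised model predicting baseline toxicity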
Source text: We also reanalyzed the Tox21 data of Adamovsky et al. with the updated baseline toxicity prediction model (Table S2).

[6] = TOX21_PPARg_BLA_antagonist_ratio, re-evaluated Tox21 data, ref Adamovsky et al 2024
[7] = Tox21Luc, ref Adamovsky et al. 2024
[8] = TOX21_PPARg_BLA_antagonist_ratio
[9] = ATG_PPARg_TRANS_up, re-evaluated Tox21 data, ref Adamovsky et al 2024
[10] = ATG_hPPARg_XSP2_up, re-evaluated Tox21 data, ref Adamovsky et al 2024

CC1(C)C(O)C(C)(C)C1O (racemic) [r-TMCD, 2,2,4,4-Tetramethyl-1,3-cyclobutanediol (racemate)]
cytotoxicity,median REPBPA,IC10 [1]: 0.00844 | IC10,Median (M) [1]: 8.29 × 10^–3 M | IC10, median [1]: 8290 µM

CC(C)(c1ccc(OCC2CO2)cc1)c1ccc(OCC2CO2)cc1 (stereo not drawn) [BADGE, Bisphenol A diglycidyl ether]
cytotoxicity,median REPBPA,IC10 [1]: 1.82 | IC10,Median (M) [1]: 3.85 × 10^–5 M | IC10, median [1]: 38.5 µM | % Loss [2]: -5% | Cparent-Ratio Mean [2]: 1.05 | Cparent-Ratio Rep.1 [2]: 1.07 | Cparent-Ratio Rep.1 % [2]: 107.02% | Cparent-Ratio Rep.2 [2]: 1.03 | Cparent-Ratio Rep.2 % [2]: 103.48%

CC(C)CC(C)(c1ccc(O)cc1)c1ccc(O)cc1 [BP-MIBK, 4,4'-(1,3-Dimethylbutylidene)diphenol]
% Loss [2]: 10%

CC(C)c1cc(C(C)(C)c2ccc(O)c(C(C)C)c2)ccc1O [BPG, 2,2-Bis(4-hydroxy-3-isopropylphenyl)propane]
cytotoxicity,median REPBPA,IC10 [1]: 8.93 | IC10,Median (M) [1]: 7.84 × 10^–6 M | IC10, median [1]: 7.84 µM

CC(C)(c1ccc(O)c(-c2ccccc2)c1)c1ccc(O)c(-c2ccccc2)c1 [BPPH, 2,2-Bis(2-hydroxy-5-biphenylyl)propane]
cytotoxicity,median REPBPA,IC10 [1]: 8.72 | IC10,Median (M) [1]: 8.02 × 10^–6 M | IC10, median [1]: 8.02 µM | Efficacy % [3]: 27.00%

Oc1ccc(C2(c3ccc(O)cc3)CCCCC2)cc1 [BPZ, 1,1'-Bis(4-hydroxyphenyl)cyclohexane]
cytotoxicity,median REPBPA,IC10 [1]: 1.33 | IC10,Median (M) [1]: 5.28 × 10^–5 M | IC10, median [1]: 52.8 µM | EC10 ([4]; TOX21_CAR_Antagonist, re-evaluated Tox21 data, ref Adamovsky et al 2024): 4.58e-07 M | EC10 [4, 6]: 1.84e-06 M | EC10 [4, 7]: 2.65E-08 | REPBPA ([5]; TOX21_CAR_Antagonist, Relative Effect Potency): 1.19 | SRbaseline ([5]; TOX21_CAR_Antagonist): 59.87 | SRbaseline [5, 8]: 14.87 | REPBPA [5, 7]: 2.90E+00

COC(=O)C(c1ccc(O)cc1)c1ccc(O)cc1 [Bz, Methyl bis(4-hydroxyphenyl)acetate]
cytotoxicity,median REPBPA,IC10 [1]: 0.19 | IC10,Median (M) [1]: 3.73 × 10^–4 M | IC10, median [1]: 373 µM

CC(C)(c1cc(Br)c(O)c(Br)c1)c1cc(Br)c(O)c(Br)c1 [TBBPA, 3,3',5,5'-Tetrabromobisphenol A]
EC10 [4, 9]: 4.64e-07 M | EC10 ([4]; ATG_hPPARg_XSP1_up, re-evaluated Tox21 data, ref Adamovsky et al 2024): 5.02e-07 M | EC10 [4, 10]: 2e-07 M | EC10 [4, 6]: 6.2e-08 M

CC(C)(c1cc(Cl)c(O)c(Cl)c1)c1cc(Cl)c(O)c(Cl)c1 [TCBPA, 2,2',6,6'-Tetrachlorobisphenol A]
cytotoxicity,median REPBPA,IC10 [1]: 0.89 | IC10,Median (M) [1]: 7.84 × 10^–5 M | IC10, median [1]: 78.4 µM | EC10 [4, 9]: 2.35e-07 M | EC10 [4, 10]: 4e-07 M | EC10 [4, 6]: 4.02e-07 M | REPBPA ([5]; ATG_PPARg_TRANS_up, Relative Effect Potency): 6.78 | SRbaseline ([5]; ATG_PPARg_TRANS_up): 37.70 | REPBPA ([5]; ATG_hPPARg_XSP2_up, Relative Effect Potency): 3.23 | SRbaseline ([5]; ATG_hPPARg_XSP2_up): 22.19 | SRbaseline [5, 8]: 22.07

Cc1cc(Cc2cc(C)c(O)c(C)c2)cc(C)c1O [TMBPF, Bis(3,5-dimethyl-4-hydroxyphenyl)methane]
cytotoxicity,median REPBPA,IC10 [1]: 5.51 | IC10,Median (M) [1]: 1.27 × 10^–5 M | IC10, median [1]: 12.7 µM

CC1(C)[C@H](O)C(C)(C)[C@H]1O [t-TMCD, trans-2,2,4,4-Tetramethyl-1,3-cyclobutanediol]
cytotoxicity,median REPBPA,IC10 [1]: 0.00783 | IC10,Median (M) [1]: 8.94 × 10^–3 M | IC10, median [1]: 8940 µM
